Test results reported in US20250281645A1, “Lentiviral Vector” (Ospedale San Raffaele S.r.l., priority 2022, published 2025).

What was measured:
Conditions in all cases: mouse, in vivo
C57 mice = test system: C57 mice
Description: (§1) (a) Experimental design: 8 weeks old mice C57 or Ldlr^−/− (n=4-6 per each condition) are injected with Bortezomib and/or Marl and/or fasted for 24 hours, before receiving LV (dose 2.75×10^10 TU/Kg) i.v. Then, hFIX is monitored in treated mice longitudinally. (b, c) Mean with SEM of hFIX antigen measured in the plasma of LV treated mice over time (4 and 26 wk post LV timepoint). Two-way ANOVA with Dunnett's multiple comparisons test vs LV control, performed for each of the two strains used.
(§2) According to the groups, mice were either faster for 24 hours, injected with Marl 3 hours before LV and/or injected with Bortezomib 1-hour before LV. Circulating hFIX amounts were then monitored longitudinally (FIG. 11A).
Wild-type C57Bl/6 adults, Ldlr/adults, Alb-F8*R593C adults, Ldlr^−/− 2-week old mice and C57 BI/6 2-week old were used in these studies. Founder B6; 129S-7-Ldlrtm1 Her/J mice (referred to as Ldlr^−/−) were obtained from the Jackson Laboratories (stock #:002207). […] C57BL/6 mice were purchased from Jackson laboratories (stock #000664). […]
(§3) hFIX ELISA assay was used to assess hFIX concentration in mouse plasma samples (Affinity Biologicals, FIX-EIA), in accordance with the manufacturer's protocol. Absorbance of each sample was determined spectrophotometrically, using a Multiskan GO microplate reader (Thermo Fisher Scientific) and normalized to antigen standard curves.

Adult mice = test system: Adult mice
Ldlr^−/− mice = test system: Ldlr^−/− mice
Description: as §1, §2
Wild-type C57Bl/6 adults, Ldlr/adults, Alb-F8*R593C adults, Ldlr^−/− 2-week old mice and C57 BI/6 2-week old were used in these studies. Founder B6; 129S-7-Ldlrtm1 Her/J mice (referred to as Ldlr^−/−) were obtained from the Jackson Laboratories (stock #:002207). […] C57BL/6 mice were purchased from Jackson laboratories (stock #000664). […] LV was administered in adult mice, males and females (7-10-weeks of age), through either tail vein or retro-orbital plexus (250-500 μL/mouse). LV was administered in juvenile mice (2 weeks of age) through retro-orbital plexus (100-200 μL/mouse). Mice were bled from the retro-orbital plexus through capillary tubes. Blood was collected in 0.38% sodium citrate buffer, pH 7.4. […] For fasting experiments, mice were starved for 24-hours and then treated or not with LV. For experiments with Bortezomib (Velcade), the drug (1 mg/kg) was administered, once diluted in saline, i.v. 1 hour before LV administration. […]
as §3

CC(C)C[C@H](NC(=O)[C@H](Cc1ccccc1)NC(=O)c1cnccn1)B(O)O [Bortezomib]
transgene output in combination with fasting, versus LV controls (C57 mice): 11-12 fold
transgene output compared to LV only, single treatment (C57 mice; iv): enhanced transgene output
VCN in KC (Adult mice): reduced VCN
VCN in LSEC (Adult mice): increase
VCN in hepatocytes (Adult mice): trend of increase
VCN in pDC (Adult mice): reduced VCN
hFIX circulating amounts versus controls (Adult mice; iv): higher than controls
overall increase in transgene output, combination of fasting and Bortezomib (Ldlr^−/− mice): 4.5-6 fold
transgene output when combined with fasting, compared to use as single treatments (Ldlr^−/− mice): milder increase in Ldlr^−/− than C57
transgene output, single treatment (Ldlr^−/− mice): give an advantage
